Results published in patent US20050054708A1, “Combinations of drugs for the treatment of neoplasms” (priority 2003, published 2005).
Where two headings read alike, the source gives them in different places.

Tests used:
[1] = mice, single intraperitoneal injection at 10 mg/kg; cited from earlier work
[2] = target: T1, protein tyrosine phosphatase 1B (PTP1 B) (Homo sapiens, UniProt P18031); details: cited from earlier work
T1 sequence (P18031 1-435): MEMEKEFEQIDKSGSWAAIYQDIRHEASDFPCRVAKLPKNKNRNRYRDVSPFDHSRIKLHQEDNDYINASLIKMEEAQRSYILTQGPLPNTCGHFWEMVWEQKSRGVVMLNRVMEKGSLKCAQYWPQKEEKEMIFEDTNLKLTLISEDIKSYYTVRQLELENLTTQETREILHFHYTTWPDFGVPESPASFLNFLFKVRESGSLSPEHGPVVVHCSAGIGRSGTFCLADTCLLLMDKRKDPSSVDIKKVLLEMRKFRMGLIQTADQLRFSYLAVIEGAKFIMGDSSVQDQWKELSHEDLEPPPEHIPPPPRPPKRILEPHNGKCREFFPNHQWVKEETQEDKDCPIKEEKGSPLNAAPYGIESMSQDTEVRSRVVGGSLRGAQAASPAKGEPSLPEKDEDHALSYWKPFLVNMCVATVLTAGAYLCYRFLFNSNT

[3] = test system: phosphatases of regenerating liver (PRL-1, PRL-2, or PRL-3); details: cited from earlier work
endo-exonuclease = details: PCT Publication No. WO 01/35935; cited from earlier work
A549 cells = assay: Anti-proliferation assay (Alamar Blue metabolism); details: Homo sapiens;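 further: 384-well plates, 72–80 h exposure at 37 °C, Alamar Blue fluorescence (ex 530 nm) read 3.5–5 h after dye addition, inhibition relative to mean of vehicle-only wells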
Method: Human non-small cells lung carcinoma cells A549 (ATCC# CCL-185), were grown at 37±0.5° C. and 5% CO2 in DMEM supplemented with 10% FBS, 2 mM glutamine, 1% penicillin, and 1% streptomycin.
Stock solutions (1000×) of each compound were prepared in DMSO and stored at −20° C. Master stock plates of 2-fold or 4-fold serial dilutions of individual compounds were prepared in 384-well plates. Combination matrices of test compounds were generated from these master stock plates by dilution into growth media described above. […] The combination matrices were used immediately and discarded.
The anti-proliferation assays were performed in 384-well plates. 6.6 μL of 10× stock solutions from the combination matrices were added to 40 μL of culture media in assay wells. The tumor cells were liberated from the culture flask using a solution of 0.25% trypsin. Cells were diluted in culture media such that 3000 or 6000 cells were delivered in 20 μL of media into each assay well. Assay plates were incubated for 72-80 hours at 37° C. ±0.5° C. with 5% CO2. Twenty microliters of 20% Alamar Blue warmed to 37° C. ±0.5° C. was added to each assay well following the incubation period. Alamar Blue metabolism was quantified by the amount of fluorescence intensity 3.5-5.0 hours after addition. Quantification, using an LJL Analyst AD reader (LJL Biosystems), was taken in the middle of the well with high attenuation, a 100 msec read time, an excitation filter at 530 nm, and an emission filter at 575 nm. For some experiments, quantification was performed using a Wallac Victor^2 reader. Measurements were taken at the top of the well with stabilized energy lamp control; a 100 msec read time, an excitation filter at 530 nm, and an emission filter at 590 nm.
The percent inhibition (% I) for each well was calculated using the following formula: % I=[(avg. untreated wells−treated well)/(avg. untreated wells)]×100 The average untreated well value (avg. untreated wells) is the arithmetic mean of 40 wells from the same assay plate treated with vehicle alone.
Inhibition of proliferation was measured by anti-proliferation assay as described below after incubation with the test compound(s) for 72 hours.

SMILES: N=C(N)c1ccc(OCCCCCOc2ccc(C(=N)N)cc2)cc1 [Pentamidine, pentamidine]
- tissue distribution [1]: The concentration in the kidneys was the highest, followed by that in the liver
- inhibition of protein tyrosine phosphatase 1B [2]: effective inhibitor
- inhibition of phosphatases of regenerating liver [3]: potent inhibitor
- inhibition of endo-exonuclease activity (endo-exonuclease): inhibit the activity of endo-exonuclease
- inhibition at 0.013 µM (A549 cells; A549, read-out: Percent inhibition of Alamar Blue Metabolism, pentamidine 0.013 μM alone (Table 3)): -28.2%
- inhibition at 0.013 µM (A549 cells; A549, read-out: Percent inhibition of Alamar Blue Metabolism, pentamidine 0.013 μM alone (Table 4)): 8.4%
- inhibition at 0.013 µM (A549 cells; A549, read-out: Percent inhibition of Alamar Blue Metabolism, pentamidine 0.013 μM alone (Table 5)): 30.2%
- inhibition at 0.013 µM (A549 cells; A549, read-out: Percent inhibition of Alamar Blue Metabolism, pentamidine 0.013 μM alone (Table 6)): -6.7%
- inhibition at 0.013 µM (A549 cells; A549, read-out: Percent inhibition of Alamar Blue Metabolism, pentamidine 0.013 μM alone (Table 7)): -4.4%
- inhibition at 0.026 µM (A549 cells; A549, read-out: Percent inhibition of Alamar Blue Metabolism, pentamidine 0.026 μM alone (Table 3)): -25.3%
- inhibition at 0.026 µM (A549 cells; A549, read-out: Percent inhibition of Alamar Blue Metabolism, pentamidine 0.026 μM alone (Table 4)): -6.8%
- inhibition at 0.026 µM (A549 cells; A549, read-out: Percent inhibition of Alamar Blue Metabolism, pentamidine 0.026 μM alone (Table 5)): 28.4%
- inhibition at 0.026 µM (A549 cells; A549, read-out: Percent inhibition of Alamar Blue Metabolism, pentamidine 0.026 μM alone (Table 6)): 13.1%
- inhibition at 0.026 µM (A549 cells; A549, read-out: Percent inhibition of Alamar Blue Metabolism, pentamidine 0.026 μM alone (Table 7)): -3%
- inhibition at 0.05 µM (A549 cells; A549, read-out: Percent inhibition of Alamar Blue Metabolism, pentamidine 0.050 μM alone (Table 8)): 2.4%
- inhibition at 0.053 µM (A549 cells; A549, read-out: Percent inhibition of Alamar Blue Metabolism, pentamidine 0.053 μM alone (Table 3)): -12.4%
- inhibition at 0.053 µM (A549 cells; A549, read-out: Percent inhibition of Alamar Blue Metabolism, pentamidine 0.053 μM alone (Table 4)): -8.8%
- inhibition at 0.053 µM (A549 cells; A549, read-out: Percent inhibition of Alamar Blue Metabolism, pentamidine 0.053 μM alone (Table 5)): 30.4%
- inhibition at 0.053 µM (A549 cells; A549, read-out: Percent inhibition of Alamar Blue Metabolism, pentamidine 0.053 μM alone (Table 6)): 1.1%
- inhibition at 0.053 µM (A549 cells; A549, read-out: Percent inhibition of Alamar Blue Metabolism, pentamidine 0.053 μM alone (Table 7)): -1.9%
- inhibition at 0.1 µM (A549 cells; A549, read-out: Percent inhibition of Alamar Blue Metabolism, pentamidine 0.100 μM alone (Table 8)): -3.1%
- inhibition at 0.105 µM (A549 cells; A549, read-out: Percent inhibition of Alamar Blue Metabolism, pentamidine 0.105 μM alone (Table 3)): 4.7%
- inhibition at 0.105 µM (A549 cells; A549, read-out: Percent inhibition of Alamar Blue Metabolism, pentamidine 0.105 μM alone (Table 4)): -3.7%
- inhibition at 0.105 µM (A549 cells; A549, read-out: Percent inhibition of Alamar Blue Metabolism, pentamidine 0.105 μM alone (Table 5)): 33.7%
- inhibition at 0.105 µM (A549 cells; A549, read-out: Percent inhibition of Alamar Blue Metabolism, pentamidine 0.105 μM alone (Table 6)): -3.7%
- inhibition at 0.105 µM (A549 cells; A549, read-out: Percent inhibition of Alamar Blue Metabolism, pentamidine 0.105 μM alone (Table 7)): 9.2%
- inhibition at 0.2 µM (A549 cells; A549, read-out: Percent inhibition of Alamar Blue Metabolism, pentamidine 0.200 μM alone (Table 8)): -0.7%
- inhibition at 0.35 µM (A549 cells; A549, read-out: Percent inhibition of Alamar Blue Metabolism, pentamidine 0.350 μM alone (Table 8)): -1.5%
- inhibition at 0.421 µM (A549 cells; A549, read-out: Percent inhibition of Alamar Blue Metabolism, pentamidine 0.421 μM alone (Table 4)): 50%
- inhibition at 0.421 µM (A549 cells; A549, read-out: Percent inhibition of Alamar Blue Metabolism, pentamidine 0.421 μM alone (Table 6)): 32.6%
- inhibition at 0.421 µM (A549 cells; A549, read-out: Percent inhibition of Alamar Blue Metabolism, pentamidine 0.421 μM alone (Table 7)): 10.5%
- inhibition at 0.422 µM (A549 cells; A549, read-out: Percent inhibition of Alamar Blue Metabolism, pentamidine 0.422 μM alone (Table 3)): 52.1%
- inhibition at 0.422 µM (A549 cells; A549, read-out: Percent inhibition of Alamar Blue Metabolism, pentamidine 0.422 μM alone (Table 5)): 68.2%
- inhibition at 0.5 µM (A549 cells; A549, read-out: Percent inhibition of Alamar Blue Metabolism, pentamidine 0.500 μM alone (Table 8)): 15.8%
- inhibition at 0.7 µM (A549 cells; A549, read-out: Percent inhibition of Alamar Blue Metabolism, pentamidine 0.700 μM alone (Table 8)): 21.7%
- inhibition at 1 µM (A549 cells; A549, read-out: Percent inhibition of Alamar Blue Metabolism, pentamidine 1.000 μM alone (Table 8)): 48.9%
- inhibition at 1.3 µM (A549 cells; A549, read-out: Percent inhibition of Alamar Blue Metabolism, pentamidine 1.300 μM alone (Table 8)): 64.7%
- inhibition at 1.685 µM (A549 cells; A549, read-out: Percent inhibition of Alamar Blue Metabolism, pentamidine 1.685 μM alone (Table 4)): 79.1%
- inhibition at 1.685 µM (A549 cells; A549, read-out: Percent inhibition of Alamar Blue Metabolism, pentamidine 1.685 μM alone (Table 6)): 71.9%
- inhibition at 1.685 µM (A549 cells; A549, read-out: Percent inhibition of Alamar Blue Metabolism, pentamidine 1.685 μM alone (Table 7)): 62.9%
- inhibition at 1.687 µM (A549 cells; A549, read-out: Percent inhibition of Alamar Blue Metabolism, pentamidine 1.687 μM alone (Table 3)): 78.2%
- inhibition at 1.687 µM (A549 cells; A549, read-out: Percent inhibition of Alamar Blue Metabolism, pentamidine 1.687 μM alone (Table 5)): 83.1%
- inhibition at 1.7 µM (A549 cells; A549, read-out: Percent inhibition of Alamar Blue Metabolism, pentamidine 1.700 μM alone (Table 8)): 70.1%
- inhibition at 3.37 µM (A549 cells; A549, read-out: Percent inhibition of Alamar Blue Metabolism, pentamidine 3.370 μM alone (Table 4)): 79.4%
- inhibition at 3.37 µM (A549 cells; A549, read-out: Percent inhibition of Alamar Blue Metabolism, pentamidine 3.370 μM alone (Table 6)): 80.6%
- inhibition at 3.37 µM (A549 cells; A549, read-out: Percent inhibition of Alamar Blue Metabolism, pentamidine 3.370 μM alone (Table 7)): 73.7%
- inhibition at 3.374 µM (A549 cells; A549, read-out: Percent inhibition of Alamar Blue Metabolism, pentamidine 3.374 μM alone (Table 3)): 85.4%
- inhibition at 3.374 µM (A549 cells; A549, read-out: Percent inhibition of Alamar Blue Metabolism, pentamidine 3.374 μM alone (Table 5)): 87.5%
